Data: paper PMC11204291, “Structural characterization of macro domain–containing Thoeris antiphage defense systems” (Science Advances, 2024)

Experiments:
[1] = molecular target: macro domain of EcThsA (EcThsA^Macro; residues 62 to 278), wild type (E. coli CFT073); assay: SEC-MALS; Superdex 200 5/150 Increase equilibrated in gel filtration buffer, 30 μl of EcThsA^Macro at 0.25 ml/min; no ligand; monomer to dimer
[2] = molecular target: macro domain of EcThsA (EcThsA^Macro; residues 62 to 278), wild type (E. coli CFT073); assay: aggregation assay (SDS-PAGE of soluble and insoluble fractions); protein 47 μM incubated with 1 mM ADPR (or 1 mM IAD) at 4°C for 1 hour; higher-order self-association of the dimers
EcThsB1, TIR domain [3] = molecular target: T1, EcThsB1, TIR domain (Escherichia coli, UniProt A0A0H2V8B5); assay: real-time 1H NMR NADase assay; type: biochemical
T1 construct: gene TcpC; EcThsB1^TIR; residues 165 to 307

EcThsB1, TIR domain [4] = molecular target: T1, EcThsB1, TIR domain; assay: 1H NMR base-exchange assay; type: biochemical
[5] = molecular target: T2, EcThsA (ThsA TM-macro effector), macro domain (Escherichia coli, UniProt A0A0H2V895, F250A/I219A/K249E/Q207E/R182E/R221E); assay: ITC (~[…]); STD NMR; type: binding
T2 construct: gene c2400; EcThsA^Macro; residues 62 to 278
T2 sequence (A0A0H2V895 62-278 R182E/Q207E/I219A/R221E/K249E/F250A): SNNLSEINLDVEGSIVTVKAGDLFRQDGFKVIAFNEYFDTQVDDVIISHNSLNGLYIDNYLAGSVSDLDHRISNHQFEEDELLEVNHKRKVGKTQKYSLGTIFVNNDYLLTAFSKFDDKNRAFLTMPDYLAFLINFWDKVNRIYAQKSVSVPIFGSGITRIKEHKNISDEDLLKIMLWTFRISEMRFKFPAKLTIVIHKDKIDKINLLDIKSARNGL

[6] = molecular target: T3, EcThsA (ThsA TM-macro effector), macro domain (Escherichia coli, UniProt A0A0H2V895); assay: crystal structure of soaked complex ([…] Å); STD NMR; type: binding
T3 construct: gene c2400; EcThsA^Macro; residues 62 to 278
T3 sequence (A0A0H2V895 62-278): T2 sequence (A0A0H2V895 62-278 R182E/Q207E/I219A/R221E/K249E/F250A)

[7] = molecular target: T4, EcThsA (ThsA TM-macro effector), macro domain (Escherichia coli, UniProt A0A0H2V895, N114A); assay: STD NMR; type: binding
T4 construct: gene c2400; EcThsA^Macro; residues 62 to 278

[8] = molecular target: T5, PcThsA (ThsA TM-macro effector), macro domain (Pseudomonas corrugata, UniProt A0A7Y5Z1U6); assay: crystal structure ([…] Å) with copurified ligand; LC-MS; type: binding
T5 construct: gene HNO91_03675; PcThsA^Macro; residues 63 to 278

[9] = molecular target: T3, EcThsA (ThsA TM-macro effector), macro domain; assay: ligand-induced self-aggregation of purified protein (turbidity, SDS-PAGE); type: binding
[10] = molecular target: T2, EcThsA (ThsA TM-macro effector), macro domain; assay: ITC; type: binding

T1 sequence (A0A0H2V8B5 165-307 limits assumed): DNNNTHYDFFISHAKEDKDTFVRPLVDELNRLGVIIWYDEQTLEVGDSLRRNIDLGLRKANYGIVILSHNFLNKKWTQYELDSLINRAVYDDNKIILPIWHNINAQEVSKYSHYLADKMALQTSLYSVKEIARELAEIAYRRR
T5 sequence (A0A7Y5Z1U6 entry or part of it): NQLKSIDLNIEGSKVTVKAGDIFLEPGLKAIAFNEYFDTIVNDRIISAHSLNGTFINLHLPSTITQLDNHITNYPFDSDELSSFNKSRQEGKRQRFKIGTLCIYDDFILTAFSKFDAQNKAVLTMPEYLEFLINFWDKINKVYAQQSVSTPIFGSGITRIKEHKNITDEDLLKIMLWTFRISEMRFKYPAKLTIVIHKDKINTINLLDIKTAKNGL

macro domain of EcThsA (EcThsA^Macro; residues 62 to 278), wild type (domain or fragment)
stoichiometry N [1]: 2 | percent of the protein in the insoluble fraction after incubation with ADPR or IAD [2]: > 50%

NC(=O)c1ccc[n+]([C@@H]2O[C@H](COP(=O)([O-])OP(=O)(O)OC[C@H]3O[C@@H](n4cnc5c(N)ncnc54)[C@H](O)[C@@H]3O)[C@@H](O)[C@H]2O)c1 [NAD^+]
real-time 1H NMR NADase assay (EcThsB1, TIR domain [3]): could use NAD^+ as a substrate to produce nicotinamide and ADP ribose (ADPR)

NCCc1c[nH]cn1 [histamine]
1H NMR base-exchange assay (EcThsB1, TIR domain [4]): EcThsB1^TIR could use the histidine catabolite histamine as a substrate in base-exchange reactions, but not histidine

Nc1ncnc2c1ncn2[C@@H]1O[C@H](COP(=O)(O)OP(=O)(O)OC[C@H]2O[C@H](O)[C@H](O)[C@@H]2O)[C@@H](O)[C@H]1O [ADPR]
Kd [5]: 4.6 ± 0.5 µM | crystal structure of soaked complex (2.1 Å); STD NMR [6]: we observed continuous electron density for a molecule corresponding to ADPR in a highly conserved cleft | STD NMR [7]: The N114A mutant could still bind ADPR (Fig. 1I), but the STD NMR signal intensities were different

c1c[nH]cn1 [imidazole]
1H NMR base-exchange assay (EcThsB1, TIR domain [4]): only imidazole, histamine, and thiazole were observed to undergo base-exchange reactions with NAD^+ in the presence of EcThsB1^TIR

Nc1ncnc2c1ncn2[C@@H]1O[C@H](COP(=O)(O)OP(=O)(O)OC[C@H]2O[C@@H](n3ccnc3)[C@H](O)[C@@H]2O)[C@@H](O)[C@H]1O [IAD]
crystal structure (1.6 Å) with copurified ligand; LC-MS [8]: revealed that the PcThsA^Macro bound nucleotide has a mass corresponding to IAD | ligand-induced self-aggregation of purified protein (turbidity, SDS-PAGE) [9]: demonstrating that only ADPR and IAD can trigger self-aggregation of EcThsA^Macro | Kd [10]: 0.167 ± 0.091 µM
